Non-standard residues stand in square brackets, D forms with d. No end group written: not given here. *: point of attachment. IRDye800CW = CC1(C)C(/C=C/C2=C(Oc3ccc(S(=O)(=O)O)cc3)C(=C/C=C3/N(CCCCS(=O)(=O)O)c4ccc(S(=O)(=O)O)cc4C3(C)C)/CCC2)=[N+](CCCCCC(=O)*)c2ccc(S(=O)(=O)[O-])cc21; Hyp = O=C(O)[C@@H]1C[C@@H](O)CN1; CF = 5(6)-carboxyfluorescein; Ahx = NCCCCCC(=O)O
Tests used:
[1] = Circular dichroism spectra and thermal melting of CMPs; format: physicochemical; settings: for Tm (CD melting curve, triple helix): after UV exposure (photo-decaged), heating rate 60° C./hr, Tm about 10° C. higher than equilibrium Tm
Method: Circular dichroism spectroscopy. CD spectra were collected on JASCO 715 spectrophotometer equipped with a JASCO PTC-348 WI temperature controller and quartz cells (0.1 mm path length). CMP solutions (320 μL, 150 μM in 1×PBS) were stored at 4° C. for at least 24 hours before measurement. For photo-decaging, samples were exposed to 365 nm UV light for at least 30 minutes before the 4° C. incubation. The thermal melting studies were performed by measuring the ellipticity at 225 nm with 60° C./hr heating rate. Raw CD signal was normalized to mean residue ellipticity based on the peptide's length and concentration (Biopolymers 95:94-104 (2011)). Melting temperatures (Tm) were determined by fitting the mean residue ellipticity to a two-state model (Org Lett 8:4735-4738 (2006)). To measure the refolding kinetics, CMP solution was thermally denatured at 75° C. for 10 minutes in a cuvette and rapidly quenched to 25° C. in an ice-water bath, after which the CD signal at 225 nm was observed over time at 25° C. The CD spectra of intact and MMP-1 cleaved type I collagen (FIG. 12) was measured in 90 μg/mL protein solutions in 20 mM acetic acid buffer at 22° C. The 37° C. thermal stability profile (FIG. 2E, inset) was generated by monitoring the ellipticity at 222 nm immediately after transferring the cuvette to a temperature controlled cuvette holder pre-set to 37° C. The Tm values reported in this study are approximately 10° C. higher than the equilibrium Tm due to high heating rate (60° C./hr) (Biopolymers 73:682-688 (2004)).
Synthesis of fluorescently labeled collagen mimetic peptides. Non-caged CMPs were synthesized using Fmoc-mediated solid-phase chemistry by manual or automated synthesis as described previously.2,4 The caged NB(GPO)9 (SEQ ID NO: 12) was prepared by introducing Fmoc(N-o-nitrobenzyl)Gly-OH (synthesized according to Tatsu et al. 2,5) in the middle of the standard solid-phase peptide synthesis. The Hyp residue following the NBGly was conjugated using 9 molar equiv of Fmoc-Hyp(tBu)-OH, 8.8 molar equiv of PyBroP, and 20 molar equiv of DIPEA for over 24 hr to overcome the low reactivity caused by the steric hindrance of the NB cage group. The remaining sequence including the GGG spacer was completed by HBTU chemistry, followed by on-resin labeling with 6 molar equivalent of CF or TAMRA activated by 6 molar equivalent of PyAOP for over 24 hr. The full length fluorescent CMPs were cleaved from resin by treating the resin with TFA/TIS/H2O (95:2.5:2.5) for 3 hr and the cleaved peptide was purified by reverse phase HPLC on a Vydac C18 column using a linear gradient mixture of water (0.1% TFA) and acetonitrile (0.1% TFA) (5-45% acetonitrile gradient in 40 min). The purified peptides were analyzed by MALDI-TOF MS (FIG. 27): m/z calculated 2975.1 [M+Na+] for CF(GPO)9 (SEQ ID NO: 10), found 2975.0 [M+Na+]; m/z calculated 2975.1 [M+Na+] for ^SG9P9O9 (SEQ ID NO: 5), found 2973.5 [M+Na+]; m/z calculated 3110.2 [M+Na+] for CF^NB(GPO)9 (SEQ ID NO: 4), found 3109.4 [M+Na+]; m/z calculated 2975.1 [M+Na+] for CF(GPO)9 (SEQ ID NO: 10) [CF^NB(GPO)9 (SEQ ID NO: 4) after UV decaging], found 2974.1 [M+Na+]; m/z calculated 3142.3 [M+H+] for TAMRA-NB(GPO)9 (SEQ ID NO: 12), found 3141.4 [M+H+]; m/z calculated 3007.2 [M+H+] for TAMRA-(GPO)9 (SEQ ID NO: 15), [TAMRA-NB(GPO)9 (SEQ ID NO: 12) after decaging], found 3006.3 [M+H+]. CD spectra and CD melting curves of the labeled CMPs were acquired in PBS solutions using a JASCO 715 CD spectrophotometer. The solutions were incubated for at least 24 hours at 4° C. prior to CD experiment to ensure folding (FIG. 28).

[2] = test system: PC-3 prostate tumor xenografts (PC3-PIP, PC3-flu); assay: In vivo tumor targeting, NIRF imaging, prostate xenografts; parameters: species or system mouse; settings: 3.7 nmol, tail vein, UV-activated, imaging over four days (to 96 hours PI)
[3] = test system: Panc02 and Panc198 tumors; assay: In vivo tumor targeting, NIRF imaging, pancreatic xenografts; parameters: species or system mouse; settings: approximately 4 nmol, tail vein; 96 hr post injection
Method: Murine Panc02 and human Panc198 cells were acquired from the ATCC (Rockville, Md.) and cultured in RPMI1640 supplemented with 10% FBS, 10 μg/mL of streptomycin and 10 I.U./mL of penicillin at 37° C. in 5% CO2 and humidified air until 80-95% confluence. The cells were then trypsinized and formulated at either 2×10^6 cells/100 μL (Panc198) or 1×10^6 cells/100 μL (Panc02) followed by subcutaneous inoculation into 12-week-old female athymic nu/nu mice (NCI). Panc198 and Panc02 cells were inoculated subcutaneously behind the left and right shoulder, respectively. When the Panc02 xenograft reached 4-6 mm in diameter (˜2 weeks after inoculation), each mouse was intravenously administered with solution containing 4 nmol of photo-activated IR-Ahx-(GPO)9 (SEQ ID NO: 9) or IR-Ahx-^SG9P9O9 (SEQ ID NO: 8) and 1 nmol of cysteine, followed by MMPsense injection and NIRF imaging as described.

[4] = test system: collagen remodeling in bones and cartilages; settings: 4 nmol intravenous, photo-decaged, four days after injection
[5] = target: T1, type I collagen films (fibrillar collagen) (Rattus norvegicus, UniProt P02454+P02466); assay: Photo-triggered CMP binding assay on collagen films; settings: 4° C., overnight incubation
T1 construct: Collagen solution (200 μL, 3.71 mg/mL, type I rat tail, BD Science); purchased BD Science; host or cells: rat tail
Method: (§1) Collagen/gelatin binding assays. Collagen solution (200 μL, 3.71 mg/mL, type I rat tail, BD Science) in 0.02 N acetic acid was added to each well of a 96-well black/clear-bottom plate (Costar) and air-dried. To make gelatin films, the same collagen solution was denatured at 70° C. for 15 minutes before applying to the well. The dried films were neutralized and washed with 1×PBS buffer (pH 7.4) and deionized water. PBS solution of carboxyfluorescein-labeled caged CMP (40 μL, 50 μM, unless indicated otherwise) pre-equilibrated at 4° C. was added onto each reconstituted collagen or gelatin film and exposed to 365 nm UV light (10 mW/cm^2, from mercury arc lamp) for 11 minutes on ice. Wells for the UV-negative control groups were covered with aluminum foil to block UV exposure. After incubation at 4° C. for over 3 hours (unless indicated otherwise), the unbound materials were removed by rinsing with PBS buffer and deionized water. The films were allowed to dry in dark, after which the fluorescence (ex: 489 nm, em: 533 nm) was measured with a SpectraMax Gemini XPS microplate reader (Molecular Devices). Each binding experiment was done in triplicate.

[6] = target: T2, thermally-denatured collagen (gelatin) films (Rattus norvegicus, UniProt P02454+P02466); assay: Photo-triggered CMP binding assay on gelatin films; settings: after photo-cleavage, type I gelatin films
T2 construct: To make gelatin films, the same collagen solution was denatured at 70° C. for 15 minutes; purchased BD Science; host or cells: rat tail
Method: as §1

[7] = target: T3, MMP-1 cleaved type I collagen (3/4 and 1/4 fragments) (rat, UniProt P02454 152-1207; P02466 86-1125); assay: fluorescent staining of SDS-PAGE gel
T3 construct: Tested kept at 22 C, after 1 min at 37 C (spontaneously denatured), and as denatured bands in SDS-PAGE; also called MMP-1 digested collagens; MMP-Col

[8] = target: T4, mouse type IV collagen (denatured, reduced, in SDS-PAGE) (mouse, UniProt P02463 28-1669; P08122 26-1707); assay: fluorescent staining of SDS-PAGE gel
T4 construct: also called collagen type IV

T1 sequence (P02454 152-1207 limits assumed): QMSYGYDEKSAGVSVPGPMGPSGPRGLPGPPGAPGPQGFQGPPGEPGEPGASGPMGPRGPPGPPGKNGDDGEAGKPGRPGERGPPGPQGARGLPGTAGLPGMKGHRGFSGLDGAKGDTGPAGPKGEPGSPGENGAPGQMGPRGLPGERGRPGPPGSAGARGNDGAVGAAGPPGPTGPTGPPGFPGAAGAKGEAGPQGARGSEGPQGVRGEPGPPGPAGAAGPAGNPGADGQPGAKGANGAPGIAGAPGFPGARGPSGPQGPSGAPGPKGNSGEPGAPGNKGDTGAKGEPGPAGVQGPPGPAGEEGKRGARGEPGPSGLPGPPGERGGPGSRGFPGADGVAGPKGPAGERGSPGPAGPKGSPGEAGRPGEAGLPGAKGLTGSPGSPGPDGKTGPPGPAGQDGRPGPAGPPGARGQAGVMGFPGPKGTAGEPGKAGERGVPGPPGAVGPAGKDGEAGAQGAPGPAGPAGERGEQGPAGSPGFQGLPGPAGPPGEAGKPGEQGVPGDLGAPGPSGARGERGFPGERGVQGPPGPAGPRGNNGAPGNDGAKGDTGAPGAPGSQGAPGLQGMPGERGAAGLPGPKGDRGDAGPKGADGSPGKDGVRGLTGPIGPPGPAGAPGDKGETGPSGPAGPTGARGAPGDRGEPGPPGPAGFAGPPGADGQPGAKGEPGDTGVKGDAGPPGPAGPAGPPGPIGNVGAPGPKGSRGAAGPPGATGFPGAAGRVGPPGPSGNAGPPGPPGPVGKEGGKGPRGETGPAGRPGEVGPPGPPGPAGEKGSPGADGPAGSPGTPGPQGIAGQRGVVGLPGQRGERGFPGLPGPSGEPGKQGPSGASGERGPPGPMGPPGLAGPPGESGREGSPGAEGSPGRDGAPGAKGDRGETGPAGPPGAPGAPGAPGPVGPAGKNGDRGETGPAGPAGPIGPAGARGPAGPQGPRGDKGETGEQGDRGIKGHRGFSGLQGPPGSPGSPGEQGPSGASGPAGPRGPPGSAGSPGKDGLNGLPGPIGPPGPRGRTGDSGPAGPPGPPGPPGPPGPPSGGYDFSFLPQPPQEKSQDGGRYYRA
T1 sequence (P02466 86-1125 limits assumed): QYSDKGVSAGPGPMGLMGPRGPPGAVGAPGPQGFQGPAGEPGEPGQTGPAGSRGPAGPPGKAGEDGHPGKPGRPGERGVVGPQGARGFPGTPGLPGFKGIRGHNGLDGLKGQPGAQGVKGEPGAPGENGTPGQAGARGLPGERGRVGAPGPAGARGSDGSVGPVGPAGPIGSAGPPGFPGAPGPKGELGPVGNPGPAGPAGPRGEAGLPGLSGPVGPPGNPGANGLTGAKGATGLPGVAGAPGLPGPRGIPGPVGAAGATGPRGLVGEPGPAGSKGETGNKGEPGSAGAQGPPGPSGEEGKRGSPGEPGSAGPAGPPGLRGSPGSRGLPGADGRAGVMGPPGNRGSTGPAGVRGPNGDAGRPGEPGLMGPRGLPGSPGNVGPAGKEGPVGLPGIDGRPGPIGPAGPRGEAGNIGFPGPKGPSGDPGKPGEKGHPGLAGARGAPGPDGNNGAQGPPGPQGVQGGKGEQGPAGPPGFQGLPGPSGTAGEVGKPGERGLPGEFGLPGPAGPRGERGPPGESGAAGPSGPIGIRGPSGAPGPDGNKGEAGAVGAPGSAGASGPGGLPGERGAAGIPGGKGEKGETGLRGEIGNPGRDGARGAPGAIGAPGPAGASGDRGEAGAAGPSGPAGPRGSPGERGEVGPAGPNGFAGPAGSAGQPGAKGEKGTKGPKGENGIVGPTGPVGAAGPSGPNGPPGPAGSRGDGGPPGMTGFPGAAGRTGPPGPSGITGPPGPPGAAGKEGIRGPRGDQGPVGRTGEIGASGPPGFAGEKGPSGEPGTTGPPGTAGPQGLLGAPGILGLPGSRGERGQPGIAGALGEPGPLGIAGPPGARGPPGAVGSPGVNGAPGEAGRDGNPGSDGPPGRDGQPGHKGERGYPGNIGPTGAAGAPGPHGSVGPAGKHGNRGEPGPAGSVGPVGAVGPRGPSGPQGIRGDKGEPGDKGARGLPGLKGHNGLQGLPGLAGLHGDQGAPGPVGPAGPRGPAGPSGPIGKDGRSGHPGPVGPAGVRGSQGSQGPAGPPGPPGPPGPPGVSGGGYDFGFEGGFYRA
T3 sequence (P02454 152-1207, chain 1 of 2): as the sequence (P02454 152-1207 limits assumed) above
T3 sequence (P02466 86-1125, chain 2 of 2): as the sequence (P02466 86-1125 limits assumed) above
T2 sequence (P02454 152-1207 limits assumed): as the sequence (P02454 152-1207 limits assumed) above
T2 sequence (P02466 86-1125 limits assumed): as the sequence (P02466 86-1125 limits assumed) above

Question: Which “triple helical folding capacity (CD melting)” value ([1]; sequence-scrambled peptide) does the source give for “IR-Ahx-^SG9P9O9: IRDye-800CW labeled sequence-scrambled control peptide with Ahx spacer, SEQ ID NO: 8 ({IRDye800CW-Ahx}-PGPGPGPPPPGPGPPPGPPPGGPPPPG; numbers in words are those of the source; also: 9 O residues (G9P9O9), places not given here)” here?
Answer: no triple helix forming capacity

Question: What about the “tumor accumulation (in vivo NIRF imaging)” value [2] of the same molecule?
Answer: minimal accumulation at the tumor sites

Question: What about the “tumor accumulation (in vivo NIRF imaging)” value ([2]; listed as IR-Ahx-SG9P9O9) of the same molecule?
Answer: cleared out

Question: And the “tumor accumulation (NIRF imaging)” value [3]?
Answer: no peptide accumulation

Question: For “IR′-Ahx-^SG9P9O9: IRDye 680RD labeled sequence-scrambled peptide, SEQ ID NO: 8 ({IRDye 680RD-Ahx}-PGPGPGPPPPGPGPPPGPPPGGPPPPG; not fully specified; numbers in words are those of the source; also: 9 O residues (G9P9O9), places not given here)”, which “skeletal uptake (whole body NIRF)” value [4] is on record?
Answer: signal only from the digestive system

Question: For CF-GGG-(GPP)4^NBGPP(GPP)4 [CF^NB(GPP)9], which “Tm (CD melting curve, triple helix)” value [1] is on record?
Answer: 51 °C

Question: What does the source list for “CF-GGG-(G^DP^DP)4^NBG^DP^DP(G^DP^DP)4 [CF^NB(G^DP^DP)9]”?
Answer: Tm (CD melting curve, triple helix) [1]: 51 °C; UV triggered collagen binding as fraction of that of CF^NB(GPP)9 [5]: about one fourth; level of gelatin binding relative to CF^NB(GPP)9 [6]: an order of magnitude lower

B1: CF^SG9P9O9, sequence-scrambled control peptide, CF-GGG-PGOGPGPOPOGOGOPPGOOPGGOOPPG (peptide)
peptide: {CF}-GGGPG[Hyp]GPGP[Hyp]P[Hyp]G[Hyp]G[Hyp]PPG[Hyp][Hyp]PGG[Hyp][Hyp]PPG
notes: Cannot fold into a triple helix; also called ^9G9P9O9; ^CG9P9O9
Question: What does the source list for B1?
Answer: binding result [7]: no binding (tested: 6 µM); binding result [8]: no binding (tested: 6 µM)

From patent publication US10426850B2, “Collagen mimetic peptides for targeting collagen strands for in vitro and in vivo imaging and therapeutic use” (The Johns Hopkins University, priority 2011, dated 2019)
